Measurements published in publication PMC3506555, “[^11C]phenytoin revisited: synthesis by [^11C]CO carbonylation and first evaluation as a P-gp tracer in rats” (EJNMMI Research, 2012).
Several values for one entry are separate records, joined by “and”; a condition that tells them apart may be missing. Identical values can stand only once.

Experiment: Metabolite analysis in brain tissue after i.v. [11C]phenytoin
Format: in vivo, Sprague–Dawley rats
Conditions: rat brain, N = 2
Experimental: Chemicals were obtained from Sigma Aldrich (St. Louis, MO, USA) and were used without further purification. All reactions were carried out under an argon atmosphere unless stated otherwise. [^11C]CO2 was produced using an IBA Cyclone 18/9 cyclotron (IBA, Louvain-La-Neuve, Belgium) by the ^14N(p,α)^11C nuclear reaction performed in a 0.5% O2/N2 gas mixture. Water was purified over a Millipore filter (Millipore, Leiden, The Netherlands). The silica gel used as stationary phase for flash column chromatography was grade 9385, 230 to 400 mesh, 60 Å and obtained from Sigma Aldrich. Chemical shifts (δ) of nuclear magnetic resonance (NMR) spectra were defined relative to the signal of the solvent (7.26 for CDCl3 and 2.50 for DMSO-d6) and measured on a Bruker Avance 250 (Bruker, Billerica, MA, USA), with δ reported in parts per million relative to the solvent. Infrared (IR) spectra were obtained using a Shimadzu FTIR-8400 S (Shimadzu, Kyoto, Japan), and wavelengths (ν) are reported in per centimeter and (s), (m) and (w), indicating strong, moderate and weak signal, respectively. […]
To study the metabolic profile of [^11C]phenytoin in the plasma and brain, five male Sprague–Dawley rats were injected with 150 to 250 MBq [^11C]phenytoin in the tail vein under isoflurane anesthesia. […] This eluate was defined as the nonpolar fraction and was analyzed using HPLC method C. […]

O=C1N[11C](=O)NC1(c1ccccc1)c1ccccc1 [[^11C]phenytoin]
Percentage of intact [11C]phenytoin, brain (25 min after injection): 95 ± 1% | Percentage of intact [11C]phenytoin, brain (45 min after injection): 83% and 83 ± 5%
